Assay [1] deals with T1, human muscarinic M2 receptor (Homo sapiens, UniProt P08172).
T1 sequence (P08172 1-466): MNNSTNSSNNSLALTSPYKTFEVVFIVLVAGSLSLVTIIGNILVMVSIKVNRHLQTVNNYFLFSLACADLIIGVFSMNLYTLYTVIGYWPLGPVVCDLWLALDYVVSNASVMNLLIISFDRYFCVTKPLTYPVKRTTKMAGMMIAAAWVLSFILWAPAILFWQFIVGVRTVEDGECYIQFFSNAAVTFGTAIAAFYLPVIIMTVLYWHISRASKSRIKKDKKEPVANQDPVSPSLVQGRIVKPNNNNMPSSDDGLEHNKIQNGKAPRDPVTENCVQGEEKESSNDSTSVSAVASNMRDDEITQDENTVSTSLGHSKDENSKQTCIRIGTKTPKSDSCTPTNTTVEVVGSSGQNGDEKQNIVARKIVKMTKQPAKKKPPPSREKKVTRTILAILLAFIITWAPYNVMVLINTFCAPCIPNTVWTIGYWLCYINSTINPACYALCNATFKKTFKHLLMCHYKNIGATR
Description: Phospho-ERK1/2 assay, muscarinic M2. The format is cell-based. To be noted: for Emax: CHO, read-out: % Emax cf. ACh (M2). Summed up: (§1)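 The assay used ERK1/2 phosphorylation as a common downstream read-out of Gq/11 and Gi/o receptor activation. CHO cells expressing each human receptor were exposed to agonist for five minutes at 37 °C after overnight serum starvation. Potency (pEC50) and maximal effect (Emax) came from the AlphaScreen signal.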

Assay [2] has as its target T2, human muscarinic M3 receptor (Homo sapiens, UniProt P20309).
T2 construct: expressed in transfected cells
As to the kind of experiment: Phospho-ERK1/2 assay, muscarinic M3. The format is cell-based. To be noted: for Emax: CHO, read-out: % Emax cf. ACh (M3). Summed up: as §1

Assay [3] has as its system CA1 region of rat hippocampal slices. As to the kind of experiment: CA1 cell firing (fEPSP amplitude). The format is cell-based. The settings on record: five point cumulative concentration-response, 6 slices averaged. Here is the method:
Rat hippocampal slices of […] thickness were cut in chilled (<4° C.) artificial cerebrospinal fluid (aCSF, composition in mM: NaCl 127, KCl 1.6, KH2PO4 1.24, MgSO4 1.3, CaCl2 2.4, NaHCO3 26 and D-glucose 10) using vibratome. Slices were maintained in oxygenated (95% O2/5% CO2) aCSF at room temperature for at least 1 hr prior to electrophysiological recording, after which they were transferred to an interface chamber and constantly perfused with warmed (30° C.) oxygenated aCSF at a flow rate of 1.5-3 ml·min−1. Schaffer collaterals were then stimulated (1-20 V, 0.1 ms pulse width, 0.033 Hz) with a concentric bipolar electrode to evoke field excitatory post synaptic potentials (fEPSPs) recorded from the stratum radiatum of the CA1 region.
Experiments were performed to examine the effect of compound compared to […] carbachol (CCh), on the amplitude of fEPSPs in the CA1 region of rat hippocampal slices. 1 μM CCh was initially applied until steady-state, followed by wash, before performing a five point cumulative concentration-response to compound. Each compound was tested on 6 slices and results averaged. Drug preparation; compound was dissolved in 100% DMSO at a stock concentration of 30 mM, and diluted according to requirements, carbamoylcholine chloride (CCh) was purchased from Sigma (Cat #C4382) and dissolved at a stock concentration of 1 mM in ddH2O.

For assay [4], the system named is scopolamine-induced amnesia. Description: Passive avoidance. The format is in vivo. The settings on record: for significance of reversal of scopolamine-induced amnesia: p<0.05 Bonferroni post hoc test; for reversal of scopolamine-induced amnesia: dose range 3, 10, 30 mg/kg po, scopolamine 1 mg/kg i.p. Here is the method: FIGS. 1-4 show the efficacy of the compounds of the invention. FIGS. 1-3 relate to the passive avoidance assay described in part B. Studies were carried out as described previously by Foley et al., (2004) Neuropsychopharmacology. In the passive avoidance task scopolamine administration (1 mg/kg, i.p.) at 6 hours following training rendered animals amnesic of the paradigm. A dose range of 3, 10, and 30 mg/kg (po) free base, administered 90 minutes prior to the training period via oral gavage, was examined.
Studies were carried out as described previously by Foley et al., (2004) Neuropsychopharmacology. In the passive avoidance task scopolamine administration (1 mg/kg, i.p.) at 6 hours following training rendered animals amnesic of the paradigm. A dose range of 3, 10, and 30 mg/kg (po) free base, administered 90 minutes prior to the training period via oral gavage, was examined.

Assay [5] concerns the target T3, human muscarinic M4 receptor (Homo sapiens, UniProt P08173).
T3 construct: expressed in transfected cells
T3 sequence (P08173 1-479): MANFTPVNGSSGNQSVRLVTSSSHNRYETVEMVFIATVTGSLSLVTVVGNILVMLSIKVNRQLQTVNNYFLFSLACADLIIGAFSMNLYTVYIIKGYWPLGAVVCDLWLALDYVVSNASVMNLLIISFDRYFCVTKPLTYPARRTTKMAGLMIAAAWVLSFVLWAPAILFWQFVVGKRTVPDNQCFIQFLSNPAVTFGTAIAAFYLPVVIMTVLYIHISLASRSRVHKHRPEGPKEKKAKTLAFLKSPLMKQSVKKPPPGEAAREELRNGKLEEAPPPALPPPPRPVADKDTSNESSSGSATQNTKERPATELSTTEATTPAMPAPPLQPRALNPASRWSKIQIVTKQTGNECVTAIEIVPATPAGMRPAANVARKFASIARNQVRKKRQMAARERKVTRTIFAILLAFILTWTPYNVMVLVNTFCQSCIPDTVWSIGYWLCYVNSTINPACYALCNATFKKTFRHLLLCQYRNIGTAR
Description: Phospho-ERK1/2 assay, muscarinic M4. The format is cell-based. The settings on record: for Emax: CHO, read-out: % Emax cf. ACh (M4). Summed up:
as §1

T2 sequence (P20309 whole entry): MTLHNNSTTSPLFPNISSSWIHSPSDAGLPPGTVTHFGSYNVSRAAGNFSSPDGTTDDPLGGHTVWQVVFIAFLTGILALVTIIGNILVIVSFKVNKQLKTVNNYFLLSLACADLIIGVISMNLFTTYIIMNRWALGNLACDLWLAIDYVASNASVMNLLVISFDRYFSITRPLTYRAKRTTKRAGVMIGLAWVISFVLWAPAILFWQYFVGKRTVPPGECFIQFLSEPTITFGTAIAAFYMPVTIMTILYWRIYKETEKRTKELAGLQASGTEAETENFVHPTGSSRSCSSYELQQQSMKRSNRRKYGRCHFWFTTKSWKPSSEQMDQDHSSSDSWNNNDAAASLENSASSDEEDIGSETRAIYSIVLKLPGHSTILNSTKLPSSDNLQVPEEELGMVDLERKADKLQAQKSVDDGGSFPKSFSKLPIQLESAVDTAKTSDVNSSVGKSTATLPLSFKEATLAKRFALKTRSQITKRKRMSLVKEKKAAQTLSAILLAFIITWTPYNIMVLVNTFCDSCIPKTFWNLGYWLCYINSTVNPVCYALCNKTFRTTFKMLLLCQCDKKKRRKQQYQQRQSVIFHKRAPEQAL

Take `CCOC(=O)N1CCC[C@H](N2CCC(C(=O)NC3(C)CCC3)CC2)CC1` [Example 65, ethyl (4S)-4-{4-[(1-methylcyclobutyl)carbamoyl]piperidin-1-yl)azepane-1-carbondate]: the half-maximal effective concentration (EC50) – broadly, the concentration that produces a half-maximal response – in assay [1] was > 20 µM; in assay [2] it was > 20 µM; in assay [3], 2050 nM; in assay [5] it was 224 nM. Besides, the Emax (as a rule, the greatest response seen or fitted, relative to the assay's reference) in assay [1] was found to be 7%; in assay [2], 11%; in assay [5], 97%. Further, the “effect compared with donepezil (0.1 mg/kg, i.p.) positive control” value in assay [4] (10 mg/kg, FIG. 3) was “not significantly different to that produced by the cholinesterase inhibitor donepezil”; in assay [4] (10 and 30 mg/kg, FIG. 2) it was “not significantly different to that produced by the cholinesterase inhibitor donepezil”. For the same compound, the “significance of reversal of scopolamine-induced amnesia” value in assay [4] (acute 10 mg/kg po, FIG. 3) was “significant effects”; in assay [4] (acute 10 and 30 mg/kg, FIG. 2), “significant effects”. The “reversal of scopolamine-induced amnesia” value in assay [4] (90 minutes prior to training) was “reverse scopolamine-induced amnesia of the paradigm in a dose-dependent manner”.
Consider `CCOC(=O)N1CCCC(N2CCC(C(=O)NC3(C)CCC3)CC2)CC1` (stereo not drawn) [Example 27, ethyl 4-(4-((1-methylcyclobutyl)carbamoyl)piperidin-1-yl)azepane-1-carboxylate], for which the EC50 in assay [1] was > 20 µM; in assay [2], > 20 µM; in assay [3] it was 1210 nM; in assay [5], 427 nM. Further, the maximal response (Emax) in assay [1] came out at 56%; in assay [2], 5%; in assay [5], 88%. Moreover, the “reversal of scopolamine-induced amnesia” value in assay [4] (90 minutes prior to training) is listed as “reverse scopolamine-induced amnesia of the paradigm in a dose-dependent manner”. In addition, the ED50 – broadly, the dose at which the effect has come halfway, by size or by number of responders – in assay [4] (po, free base, 90 minutes prior to training, scopolamine 1 mg/kg i.p. 6 hours after training, read-out: approximate ED50, reversal of scopolamine-induced amnesia) was ~10 mg/kg.

The values are drawn from US10973832B2, “Muscarinic M1 receptor agonists” (Heptares Therapeutics Limited, priority 2011, dated 2021).
